Results taken from patent US20210269859A1, “PATHOGEN AND ANT[…]” (priority 2014, published 2021).
Where two headings read alike, the source gives them in different places.

Key:
Type in all cases: cell-based
[1] = system: kanamycin resistant E. coli K12 MG1655 strain; conditions: 100 μl
Description: (§1) A single E. coli bacterial colony (E. coli K12 MG1655) known to be resistant to kanamycin and a single E. coli bacterial colony (E. coli K12 MG1655) known to be resistant to carbenicillin were separately cultured in LB media for 12-15 hrs until the bacterial cells were in mid-log phase (about 10^8 cells/nil). The culture was then serial diluted to 5×10^2, 5×10^3, 5×10^4, and 5×10^5 cells in LB media containing either 50 μg/ml kanamycin or 100 μg/ml carbenicillin. Resazurin was added to each dilution at a final concentration of 20, 40, or 80 μM in a total reaction volume of 100 μl. Each diluted culture was cultured at 37° C. and fluorescence was measured at wavelength 590 nm at 0, 1, 2, 3, 4, 5, and 6 hrs from the start of culture in the presence of the antibiotic.

[2] = system: carbenicillin resistant E. coli K12 MG1655 strain; experiment: Resazurin reduction method, 100 μl total reaction volume
Description: as §1

[3] = system: kanamycin resistant E. coli K12 MG1655 strain; conditions: 10 μl
Description: as §1
The resazurin reduction method was repeated using the kanamycin resistant strain but in a 10 μl total reaction volume and with final cell concentrations of 5×10^1, 5×10^2, 5×10^3, and 5×10^4 cells per reaction. The same final resazurin concentrations (20, 40, or 80 μM), kanamycin concentration, and carbenicillin concentration were used as above. Fluorescence was measured at wavelength 590 nm at 0, 1, 2, 3, 4, 5, 6, and 7 hrs from the start of culture in the presence of the antibiotic.

[4] = 50 μg/ml kanamycin or 100 μg/ml carbenicillin, 5×10^2 to 5×10^5 cells, resazurin 20, 40 or 80 μM, 37° C., 0-6 hrs
[5] = higher initial cell concentrations (5×10^3, 5×10^4, 5×10^5 cells)
[6] = lower initial cell concentration (5×10^2 cells)

CC1(C)S[C@@H]2[C@H](NC(=O)C(C(=O)O)c3ccccc3)C(=O)N2[C@H]1C(=O)O (stereo partly drawn) [carbenicillin]
growth of the strain in the presence of the antibiotic (fluorescence at 590 nm) [1, 4]: slow or no growth | growth of the strain in the presence of the antibiotic (fluorescence at 590 nm) [2, 4]: growth | time after initiating the culture at which resistance to the antibiotic could be detected [2, 5]: 1 to 5 h | time after initiating the culture at which resistance to the antibiotic began showing [2, 6]: about 6 hrs | growth of the strain in the presence of the antibiotic (fluorescence at 590 nm) ([3]; same kanamycin and carbenicillin concentrations, 5×10^1 to 5×10^4 cells per reaction, resazurin 20, 40 or 80 μM, 0-7 hrs): slow or no growth

NC[C@H]1O[C@H](O[C@H]2[C@H](O)[C@@H](O[C@H]3O[C@H](CO)[C@@H](O)[C@H](N)[C@H]3O)[C@H](N)C[C@@H]2N)[C@H](O)[C@@H](O)[C@@H]1O [kanamycin]
time after initiating the culture at which resistance to the antibiotic could be detected [1, 5]: 1 to 5 h | time after initiating the culture at which resistance to the antibiotic began showing [1, 6]: about 6 hrs | time after initiating the culture at which resistance to the antibiotic could be detected ([3]; higher initial cell concentrations (5×10^2, 5×10^3, 5×10^4 cells)): 1 to 6 h | time after initiating the culture at which resistance to the antibiotic began showing ([3]; lower initial cell concentration (5×10^1 cells)): about 7 hrs
